In the NIST ThermoML archive (doi:10.1016/j.jct.2011.10.023):

Details: Liquid, Vibrating tube method

CCCCCCCO [heptan-1-ol]
mass density [kg/m3]
Details	278.15 K	288.15 K	298.15 K	308.15 K	318.15 K	328.15 K	338.15 K	348.15 K	358.15 K
100 kPa	832.4	825.5	818.5	811.4	804.3	797.1	789.7	782.1	774.2
1000 kPa	833	826.1	819.1	812.1	805	797.8	790.4	782.9	775.1
5000 kPa	835.4	828.6	821.8	814.7	807.9	800.9	793.7	786.3	778.7
10000 kPa	838.3	831.7	824.9	818.3	811.4	804.6	797.5	790.4	783
15000 kPa	841.2	834.7	828.1	821.5	814.8	808.1	801.2	794.2	787.1
20000 kPa	843.9	837.6	831.1	824.6	818.1	811.5	804.7	797.9	790.9
25000 kPa	846.4	840.4	833.9	827.6	821.2	814.7	808.1	801.4	794.6
30000 kPa	849.2	843.1	836.7	830.5	824.2	817.8	811.4	804.8	798.2
35000 kPa	851.7	845.7	839.5	833.3	827.1	820.8	814.6	808.1	801.5
40000 kPa	854.2	848.2	842.1	836	829.9	823.8	817.5	811.3	804.9
45000 kPa	856.6	850.7	844.7	838.7	832.7	826.6	820.6	814.3	808.1
50000 kPa	859	853.1	847.2	841.3	835.4	829.4	823.4	817.3	811.1
55000 kPa	861.3	855.5	849.7	843.8	838	832.1	826.2	820.2	814.1
60000 kPa	863.4	857.8	852.1	846.1	840.4	834.5	828.7	822.8	816.9

CCCCCCO [hexan-1-ol]
mass density [kg/m3]
Details	278.15 K	288.15 K	298.15 K	308.15 K	318.15 K	328.15 K	338.15 K	348.15 K	358.15 K
100 kPa	828.9	822.1	814.9	807.8	800.5	793	785.4	777.6	769.4
1000 kPa	829.5	822.7	815.6	808.4	801.2	793.7	786.2	778.4	770
5000 kPa	832	825.3	818.4	811.4	804.3	797	789.6	782	774.2
10000 kPa	835	828.5	821.7	814.8	807.9	800.8	793.6	786.2	778.6
15000 kPa	838	831.6	824.9	818.2	811.4	804.4	797.4	790.2	782.8
20000 kPa	840.8	834.6	828	821.4	814.7	807.9	801	794.1	786.9
25000 kPa	843.6	837.4	830.9	824.5	817.9	811.2	804.5	797.6	790.7
30000 kPa	846.3	840.2	833.8	827.5	821	814.4	807.9	801.2	794.3
35000 kPa	848.9	842.9	836.6	830.3	824	817.6	811.1	804.6	797.9
40000 kPa	851.4	845.5	839.4	833.2	826.9	820.6	814.2	807.8	801.3
45000 kPa	853.9	848	842	835.9	829.7	823.5	817.3	811	804.6
50000 kPa	856.3	850.5	844.6	838.5	832.4	826.4	820.2	814	807.7
55000 kPa	858.7	853	847.1	841.1	835.1	829.1	823.1	817	810.8
60000 kPa	860.9	855.4	849.6	843.5	837.7	831.6	825.7	819.7	813.5

CCCCCCCCCO [nonan-1-ol]
mass density [kg/m3]
Details	278.15 K	288.15 K	298.15 K	308.15 K	318.15 K	328.15 K	338.15 K	348.15 K	358.15 K
100 kPa	836.9	829.9	823.2	816.5	809.8	802.8	795.7	788.3	780.9
1000 kPa	837.4	830.5	823.7	817.1	810.4	803.4	796.4	788.9	781.6
5000 kPa	839.7	832.7	826.3	819.8	813.2	806.3	799.4	792.3	785
10000 kPa	842.5	835.9	829.4	822.9	816.5	809.8	803	796.1	789
15000 kPa	845.1	838.7	832.3	826	819.7	813.1	806.5	799.7	792.9
20000 kPa	847.8	841.4	835.1	828.9	822.7	816.3	809.8	803.2	796.5
25000 kPa	850.3	844	837.9	831.8	825.6	819.3	813	806.6	799.9
30000 kPa	852.8	846.6	840.5	834.5	828.5	822.3	816.1	809.8	803.3
35000 kPa	855.3	849.1	843.1	837.2	831.3	825.2	819.1	812.9	806.6
40000 kPa	857.6	851.6	845.7	839.8	834	828	822	815.9	809.7
45000 kPa	859.9	854	848.1	842.4	836.6	830.7	824.8	818.8	812.8
50000 kPa	862.2	856.3	850.5	844.8	839.2	833.4	827.6	821.6	815.7
55000 kPa	864.4	858.6	852.9	847.3	841.7	836	830.2	824.4	818.6
60000 kPa	866.4	860.7	855	849.3	844	838.3	832.7	826.7	821.2
